{"source": "patent US10597387B2", "about": "“Methods to treat lymphoplasmacytic lymphoma” (Dana-Farber Cancer Institute, Inc., priority 2013, dated 2020)", "assay_in_all_cases": "KiNativ kinase profiling", "key": {"IRAK4": {"target": "IRAK4 (Homo sapiens (Human), UniProt Q9NWZ3)", "sequence (Q9NWZ3 whole entry)": "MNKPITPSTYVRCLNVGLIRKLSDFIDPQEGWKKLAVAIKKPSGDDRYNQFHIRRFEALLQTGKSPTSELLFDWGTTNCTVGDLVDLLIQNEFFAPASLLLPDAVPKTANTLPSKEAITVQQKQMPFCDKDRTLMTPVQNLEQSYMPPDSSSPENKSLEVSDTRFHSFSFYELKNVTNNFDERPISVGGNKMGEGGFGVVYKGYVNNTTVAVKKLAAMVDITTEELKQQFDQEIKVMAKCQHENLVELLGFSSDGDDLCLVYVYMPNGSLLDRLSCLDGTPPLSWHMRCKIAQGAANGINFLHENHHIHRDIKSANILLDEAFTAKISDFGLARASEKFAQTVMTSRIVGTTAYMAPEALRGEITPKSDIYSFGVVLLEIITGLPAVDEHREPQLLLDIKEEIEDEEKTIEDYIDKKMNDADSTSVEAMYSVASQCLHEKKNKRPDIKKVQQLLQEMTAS", "type": "binding", "details": "Lys2, A375 cells, read-out: inhibition of kinase labeling"}, "MST2": {"target": "MST2 (Homo sapiens (Human), UniProt Q13188)", "sequence (Q13188 whole entry)": "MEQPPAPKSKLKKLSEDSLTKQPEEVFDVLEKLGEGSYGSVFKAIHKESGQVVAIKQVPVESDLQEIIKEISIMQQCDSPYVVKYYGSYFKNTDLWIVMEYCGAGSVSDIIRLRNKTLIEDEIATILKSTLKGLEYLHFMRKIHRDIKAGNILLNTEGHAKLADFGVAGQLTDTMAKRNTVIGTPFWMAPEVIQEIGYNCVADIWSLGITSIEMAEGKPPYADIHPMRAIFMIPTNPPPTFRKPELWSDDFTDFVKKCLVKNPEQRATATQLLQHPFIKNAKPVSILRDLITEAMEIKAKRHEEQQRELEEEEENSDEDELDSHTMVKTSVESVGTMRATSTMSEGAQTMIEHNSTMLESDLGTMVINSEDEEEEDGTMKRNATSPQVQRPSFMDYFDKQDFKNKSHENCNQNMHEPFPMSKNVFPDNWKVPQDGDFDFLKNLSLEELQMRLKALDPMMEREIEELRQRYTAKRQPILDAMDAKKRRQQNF", "type": "binding", "details": "Lys1, A375 cells, read-out: inhibition of kinase labeling"}, "CDK5": {"target": "CDK5 (Homo sapiens (Human), UniProt Q00535)", "sequence (Q00535 whole entry)": "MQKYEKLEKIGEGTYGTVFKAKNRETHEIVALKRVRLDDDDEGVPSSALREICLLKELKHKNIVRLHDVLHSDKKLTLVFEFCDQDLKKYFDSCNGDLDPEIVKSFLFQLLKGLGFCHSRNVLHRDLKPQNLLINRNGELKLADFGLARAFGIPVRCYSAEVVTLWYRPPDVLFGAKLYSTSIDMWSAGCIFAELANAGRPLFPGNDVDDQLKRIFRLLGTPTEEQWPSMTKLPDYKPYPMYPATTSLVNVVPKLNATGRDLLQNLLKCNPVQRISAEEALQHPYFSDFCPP", "type": "binding", "details": "Lys2, A375 cells, read-out: inhibition of kinase labeling"}, "STLK5": {"target": "STLK5 (Homo sapiens (Human), UniProt Q7RTN6)", "sequence (Q7RTN6 whole entry)": "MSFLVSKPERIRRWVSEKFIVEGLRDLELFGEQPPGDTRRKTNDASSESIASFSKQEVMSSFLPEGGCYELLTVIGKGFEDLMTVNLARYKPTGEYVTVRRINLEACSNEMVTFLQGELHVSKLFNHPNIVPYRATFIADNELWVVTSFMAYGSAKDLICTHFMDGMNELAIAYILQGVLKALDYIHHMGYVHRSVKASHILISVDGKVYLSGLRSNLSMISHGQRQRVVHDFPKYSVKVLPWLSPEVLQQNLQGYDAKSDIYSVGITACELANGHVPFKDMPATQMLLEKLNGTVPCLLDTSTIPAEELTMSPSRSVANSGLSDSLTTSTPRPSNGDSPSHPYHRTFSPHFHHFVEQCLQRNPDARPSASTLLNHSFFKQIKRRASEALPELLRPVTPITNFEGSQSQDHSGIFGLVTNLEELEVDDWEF", "type": "binding", "details": "Activation Loop, A375 cells, read-out: inhibition of kinase labeling"}, "MAP3K2, MAP3K3": {"system": "MAP3K2, MAP3K3", "type": "binding, Homo sapiens", "details": "Lys2, 1 μM, A375 cells"}, "RSK1 domain1": {"target": "RSK1 domain1 (Homo sapiens (Human), UniProt Q15418)", "type": "binding", "details": "Lys2, A375 cells, read-out: inhibition of kinase labeling"}, "NEK3": {"target": "NEK3 (Homo sapiens (Human), UniProt P51956)", "sequence (P51956 whole entry)": "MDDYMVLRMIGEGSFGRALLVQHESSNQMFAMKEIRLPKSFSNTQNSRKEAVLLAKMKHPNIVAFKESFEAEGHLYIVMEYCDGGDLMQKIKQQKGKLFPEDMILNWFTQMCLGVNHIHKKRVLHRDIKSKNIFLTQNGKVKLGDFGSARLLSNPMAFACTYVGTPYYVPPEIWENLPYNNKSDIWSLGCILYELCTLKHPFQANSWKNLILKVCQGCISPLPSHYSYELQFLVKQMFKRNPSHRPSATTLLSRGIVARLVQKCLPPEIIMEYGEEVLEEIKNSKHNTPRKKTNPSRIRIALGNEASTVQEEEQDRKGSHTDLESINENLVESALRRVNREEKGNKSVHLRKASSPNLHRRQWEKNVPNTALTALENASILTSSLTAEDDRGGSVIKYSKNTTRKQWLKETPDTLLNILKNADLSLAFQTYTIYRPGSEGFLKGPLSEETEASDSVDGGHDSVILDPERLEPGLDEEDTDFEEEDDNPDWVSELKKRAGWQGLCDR", "type": "binding", "details": "Activation Loop, A375 cells, read-out: inhibition of kinase labeling"}, "NDR2": {"target": "NDR2 (Homo sapiens (Human), UniProt Q9Y2H1)", "type": "binding", "details": "Lys2, A375 cells, read-out: inhibition of kinase labeling"}, "FGR": {"target": "FGR (Homo sapiens (Human), UniProt P09769)", "type": "binding", "details": "Activation Loop, A375 cells, read-out: inhibition of kinase labeling"}, "Erk2": {"target": "Erk2 (Homo sapiens (Human), UniProt P28482)", "type": "binding", "details": "Lys2, A375 cells, read-out: inhibition of kinase labeling"}, "PIK3CD": {"target": "PIK3CD (Homo sapiens (Human), UniProt O00329)", "type": "binding", "details": "ATP, A375 cells, read-out: inhibition of kinase labeling"}, "NEK9": {"target": "NEK9 (Homo sapiens (Human), UniProt Q8TD19)", "sequence (Q8TD19 whole entry)": "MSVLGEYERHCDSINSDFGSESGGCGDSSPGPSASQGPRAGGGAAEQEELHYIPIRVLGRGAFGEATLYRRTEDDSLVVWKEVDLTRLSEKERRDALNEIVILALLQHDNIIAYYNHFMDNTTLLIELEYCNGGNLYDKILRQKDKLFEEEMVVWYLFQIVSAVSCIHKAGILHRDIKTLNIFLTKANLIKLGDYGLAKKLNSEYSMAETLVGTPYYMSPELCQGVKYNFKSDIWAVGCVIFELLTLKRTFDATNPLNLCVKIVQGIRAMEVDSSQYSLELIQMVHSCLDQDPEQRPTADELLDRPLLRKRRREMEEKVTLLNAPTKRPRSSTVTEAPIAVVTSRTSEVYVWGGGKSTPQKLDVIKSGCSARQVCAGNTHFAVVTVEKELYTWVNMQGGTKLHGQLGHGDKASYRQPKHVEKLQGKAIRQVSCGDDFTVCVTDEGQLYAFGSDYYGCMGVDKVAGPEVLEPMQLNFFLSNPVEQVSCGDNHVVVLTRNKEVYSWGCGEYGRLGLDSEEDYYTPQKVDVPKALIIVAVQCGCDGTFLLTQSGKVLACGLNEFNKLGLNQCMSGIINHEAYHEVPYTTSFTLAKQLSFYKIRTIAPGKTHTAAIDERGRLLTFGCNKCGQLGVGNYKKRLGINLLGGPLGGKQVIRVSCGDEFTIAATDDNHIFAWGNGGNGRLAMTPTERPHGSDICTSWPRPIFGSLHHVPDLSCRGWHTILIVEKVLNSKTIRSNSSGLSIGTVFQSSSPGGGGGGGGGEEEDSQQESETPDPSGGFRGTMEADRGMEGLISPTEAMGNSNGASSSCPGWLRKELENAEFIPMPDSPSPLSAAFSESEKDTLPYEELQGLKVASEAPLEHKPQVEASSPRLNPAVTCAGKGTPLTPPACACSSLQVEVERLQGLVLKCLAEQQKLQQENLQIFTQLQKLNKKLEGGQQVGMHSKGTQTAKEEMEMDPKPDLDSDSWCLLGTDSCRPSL", "type": "binding", "details": "Lys2, A375 cells, read-out: inhibition of kinase labeling"}, "SGK3": {"target": "SGK3 (Homo sapiens (Human), UniProt Q96BR1)", "type": "binding", "details": "Lys1, A375 cells, read-out: inhibition of kinase labeling"}, "PI4KB": {"target": "PI4KB (Homo sapiens (Human), UniProt Q9UBF8)", "type": "binding", "details": "ATP, A375 cells, read-out: inhibition of kinase labeling"}, "PIP5K3": {"target": "PIP5K3 (Homo sapiens (Human), UniProt Q9Y2I7)", "type": "binding", "details": "ATP, A375 cells, read-out: inhibition of kinase labeling"}, "ATR": {"target": "ATR (Homo sapiens (Human), UniProt Q13535)", "type": "binding", "details": "ATP, A375 cells, read-out: inhibition of kinase labeling"}, "CaMK1d": {"target": "CaMK1d (Homo sapiens (Human), UniProt Q8IU85)", "type": "binding", "details": "Lys1, A375 cells, read-out: inhibition of kinase labeling"}, "MAP2K1, MAP2K2": {"system": "MAP2K1, MAP2K2", "type": "binding, Homo sapiens", "details": "Lys2, 1 μM, A375 cells"}, "TLK2": {"target": "TLK2 (Homo sapiens (Human), UniProt Q86UE8)", "sequence (Q86UE8 whole entry)": "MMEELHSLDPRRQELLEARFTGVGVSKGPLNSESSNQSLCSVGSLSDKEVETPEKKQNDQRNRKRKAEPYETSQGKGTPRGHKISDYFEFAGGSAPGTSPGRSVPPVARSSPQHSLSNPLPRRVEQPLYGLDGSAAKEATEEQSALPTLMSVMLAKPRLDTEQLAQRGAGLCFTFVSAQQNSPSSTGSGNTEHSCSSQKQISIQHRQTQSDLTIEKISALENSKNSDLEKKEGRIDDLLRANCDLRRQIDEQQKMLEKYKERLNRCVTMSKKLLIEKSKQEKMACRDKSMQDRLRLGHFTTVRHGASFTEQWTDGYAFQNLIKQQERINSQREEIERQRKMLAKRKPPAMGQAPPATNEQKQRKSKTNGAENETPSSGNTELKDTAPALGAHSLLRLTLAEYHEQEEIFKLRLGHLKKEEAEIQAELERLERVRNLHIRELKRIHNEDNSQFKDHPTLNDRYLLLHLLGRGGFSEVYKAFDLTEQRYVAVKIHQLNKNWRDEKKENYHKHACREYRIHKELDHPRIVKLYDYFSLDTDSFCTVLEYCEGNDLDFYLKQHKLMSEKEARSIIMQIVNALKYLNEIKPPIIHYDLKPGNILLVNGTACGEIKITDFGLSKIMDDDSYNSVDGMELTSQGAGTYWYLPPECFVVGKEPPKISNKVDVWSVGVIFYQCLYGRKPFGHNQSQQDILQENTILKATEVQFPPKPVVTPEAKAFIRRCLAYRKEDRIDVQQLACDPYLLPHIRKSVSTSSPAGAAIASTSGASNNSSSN", "type": "binding", "details": "Lys2, A375 cells, read-out: inhibition of kinase labeling"}, "PKR": {"target": "PKR (Homo sapiens (Human), UniProt P19525)", "type": "binding", "details": "Lys2, A375 cells, read-out: inhibition of kinase labeling"}, "NEK6, NEK7": {"system": "NEK6, NEK7", "type": "binding, Homo sapiens", "details": "Lys2, 1 μM, A375 cells"}, "MAP2K6": {"target": "MAP2K6 (Homo sapiens (Human), UniProt P52564)", "type": "binding", "details": "Lys2, A375 cells, read-out: inhibition of kinase labeling"}, "MARK1, MARK2": {"system": "MARK1, MARK2", "type": "binding, Homo sapiens", "details": "Lys1, 1 μM, A375 cells"}, "p38d, p38g": {"system": "p38d, p38g", "type": "binding, Homo sapiens", "details": "Lys2, 1 μM, A375 cells"}, "PIK3C3": {"target": "PIK3C3 (Homo sapiens (Human), UniProt Q8NEB9)", "type": "binding", "details": "ATP, A375 cells, read-out: inhibition of kinase labeling"}, "CDK2": {"target": "CDK2 (Homo sapiens (Human), UniProt P24941)", "type": "binding", "details": "Lys2, A375 cells, read-out: inhibition of kinase labeling"}, "ULK3": {"target": "ULK3 (Homo sapiens (Human), UniProt Q6PHR2)", "sequence (Q6PHR2 whole entry)": "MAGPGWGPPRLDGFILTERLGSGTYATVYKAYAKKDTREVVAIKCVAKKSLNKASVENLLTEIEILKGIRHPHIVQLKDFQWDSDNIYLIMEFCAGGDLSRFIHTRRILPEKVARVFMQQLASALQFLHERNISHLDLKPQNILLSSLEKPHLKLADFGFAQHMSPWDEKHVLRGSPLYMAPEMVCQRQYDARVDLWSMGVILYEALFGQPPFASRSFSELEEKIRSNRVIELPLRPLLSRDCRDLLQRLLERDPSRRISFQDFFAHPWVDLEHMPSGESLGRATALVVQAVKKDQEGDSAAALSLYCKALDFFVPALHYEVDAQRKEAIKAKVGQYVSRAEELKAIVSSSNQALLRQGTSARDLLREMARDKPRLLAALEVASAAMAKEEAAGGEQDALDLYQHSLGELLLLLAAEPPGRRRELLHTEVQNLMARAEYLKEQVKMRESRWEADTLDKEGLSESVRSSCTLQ", "type": "binding", "details": "Lys1, A375 cells, read-out: inhibition of kinase labeling"}, "BARK1": {"target": "BARK1 (Homo sapiens (Human), UniProt P25098)", "type": "binding", "details": "Lys2, A375 cells, read-out: inhibition of kinase labeling"}, "PIP4K2C": {"target": "PIP4K2C (Homo sapiens (Human), UniProt Q8TBX8)", "type": "binding", "details": "ATP, A375 cells, read-out: inhibition of kinase labeling"}, "MAP2K1": {"target": "MAP2K1 (Homo sapiens (Human), UniProt Q02750)", "type": "binding", "details": "Lys2, A375 cells, read-out: inhibition of kinase labeling"}, "KHS1": {"target": "KHS1 (Homo sapiens (Human), UniProt Q9Y4K4)", "type": "binding", "details": "Lys1, A375 cells, read-out: inhibition of kinase labeling"}, "PKD2": {"target": "PKD2 (Homo sapiens (Human), UniProt Q9BZL6)", "type": "binding", "details": "Lys1, A375 cells, read-out: inhibition of kinase labeling"}, "PIK3CB": {"target": "PIK3CB (Homo sapiens (Human), UniProt P42338)", "type": "binding", "details": "ATP, A375 cells, read-out: inhibition of kinase labeling"}, "CSK": {"target": "CSK (Homo sapiens (Human), UniProt P41240)", "type": "binding", "details": "Activation Loop, A375 cells, read-out: inhibition of kinase labeling"}, "MAP2K3": {"target": "MAP2K3 (Homo sapiens (Human), UniProt P46734)", "sequence (P46734 whole entry)": "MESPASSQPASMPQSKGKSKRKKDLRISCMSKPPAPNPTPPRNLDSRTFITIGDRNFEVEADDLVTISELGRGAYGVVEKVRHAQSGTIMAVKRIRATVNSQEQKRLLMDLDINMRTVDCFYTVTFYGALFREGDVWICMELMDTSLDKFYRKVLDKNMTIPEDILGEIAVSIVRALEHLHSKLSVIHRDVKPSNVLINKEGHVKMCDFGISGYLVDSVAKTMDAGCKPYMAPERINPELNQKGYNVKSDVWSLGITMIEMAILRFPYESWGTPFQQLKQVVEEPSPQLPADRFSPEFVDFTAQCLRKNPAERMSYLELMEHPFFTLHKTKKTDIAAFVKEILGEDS", "type": "binding", "details": "Lys2, A375 cells, read-out: inhibition of kinase labeling"}, "MST1": {"target": "MST1 (Homo sapiens (Human), UniProt Q13043)", "type": "binding", "details": "Lys1, A375 cells, read-out: inhibition of kinase labeling"}, "HPK1": {"target": "HPK1 (Homo sapiens (Human), UniProt Q92918)", "type": "binding", "details": "Lys1, A375 cells, read-out: inhibition of kinase labeling"}, "CDK7": {"target": "CDK7 (Homo sapiens (Human), UniProt P50613)", "type": "binding", "details": "Lys2, A375 cells, read-out: inhibition of kinase labeling"}, "CK1g2": {"target": "CK1g2 (Homo sapiens (Human), UniProt P78368)", "type": "binding", "details": "Lys2, A375 cells, read-out: inhibition of kinase labeling"}, "LKB1": {"target": "LKB1 (Homo sapiens (Human), UniProt Q15831)", "type": "binding", "details": "Lys2, A375 cells, read-out: inhibition of kinase labeling"}, "[1]": {"system": "CaMK2a, CaMK2b, CaMK2d, CaMK2g", "type": "binding, Homo sapiens", "details": "Lys2, 1 μM, A375 cells"}}, "data": [{"smiles": "Cc1ccc(C(=O)Nc2cccc(C(C)(C)C#N)c2)cc1NC(=O)c1cncc(-c2cccs2)c1", "note": "[I-6, N-(5-((3-(2-cyanopropan-2-yl)phenyl)carbamoyl)-2-methylphenyl)-5-(thiophen-2-yl)nicotinamide]", "values": [{"measurement": "inhibition at 1 µM", "setting": "IRAK4", "value": -1.4, "unit": "%"}, {"measurement": "inhibition at 1 µM", "setting": "MST2", "value": -6.1, "unit": "%"}, {"measurement": "inhibition at 1 µM", "setting": "CDK5", "value": 9.3, "unit": "%"}, {"measurement": "inhibition at 1 µM", "setting": "STLK5", "value": -17.8, "unit": "%"}, {"measurement": "inhibition of kinase labeling", "setting": "MAP3K2, MAP3K3", "value": "−15.3", "unit": "%"}, {"measurement": "inhibition at 1 µM", "setting": "RSK1 domain1", "value": 33.3, "unit": "%"}, {"measurement": "inhibition at 1 µM", "setting": "NEK3", "value": 10, "unit": "%"}, {"measurement": "inhibition at 1 µM", "setting": "NDR2", "value": -12.5, "unit": "%"}, {"measurement": "inhibition at 1 µM", "setting": "FGR", "value": 3.5, "unit": "%"}, {"measurement": "inhibition at 1 µM", "setting": "Erk2", "value": -11, "unit": "%"}, {"measurement": "inhibition at 1 µM", "setting": "PIK3CD", "value": -6.8, "unit": "%"}, {"measurement": "inhibition at 1 µM", "setting": "NEK9", "value": -0.3, "unit": "%"}, {"measurement": "inhibition at 1 µM", "setting": "SGK3", "value": -7.2, "unit": "%"}, {"measurement": "inhibition at 1 µM", "setting": "PI4KB", "value": -15.1, "unit": "%"}, {"measurement": "inhibition at 1 µM", "setting": "PIP5K3", "value": 17.8, "unit": "%"}, {"measurement": "inhibition at 1 µM", "setting": "ATR", "value": 26.2, "unit": "%"}, {"measurement": "inhibition at 1 µM", "setting": "CaMK1d", "value": -17.8, "unit": "%"}, {"measurement": "inhibition of kinase labeling", "setting": "MAP2K1, MAP2K2", "value": 4.1, "unit": "%"}, {"measurement": "inhibition at 1 µM", "setting": "TLK2", "value": -18.8, "unit": "%"}, {"measurement": "inhibition at 1 µM", "setting": "PKR", "value": 3.2, "unit": "%"}, {"measurement": "inhibition of kinase labeling", "setting": "NEK6, NEK7", "value": "−3.7", "unit": "%"}, {"measurement": "inhibition at 1 µM", "setting": "MAP2K6", "value": 9.4, "unit": "%"}, {"measurement": "inhibition of kinase labeling", "setting": "MARK1, MARK2", "value": "−4.9", "unit": "%"}, {"measurement": "inhibition of kinase labeling", "setting": "p38d, p38g", "value": 17.8, "unit": "%"}, {"measurement": "inhibition at 1 µM", "setting": "PIK3C3", "value": -23.1, "unit": "%"}, {"measurement": "inhibition at 1 µM", "setting": "CDK2", "value": 8.6, "unit": "%"}, {"measurement": "inhibition at 1 µM", "setting": "ULK3", "value": -21.5, "unit": "%"}, {"measurement": "inhibition at 1 µM", "setting": "BARK1", "value": -1.2, "unit": "%"}, {"measurement": "inhibition at 1 µM", "setting": "PIP4K2C", "value": 12.3, "unit": "%"}, {"measurement": "inhibition at 1 µM", "setting": "MAP2K1", "value": 10.8, "unit": "%"}, {"measurement": "inhibition at 1 µM", "setting": "KHS1", "value": -21.8, "unit": "%"}, {"measurement": "inhibition at 1 µM", "setting": "PKD2", "value": -17.8, "unit": "%"}, {"measurement": "inhibition at 1 µM", "setting": "PIK3CB", "value": 2.8, "unit": "%"}, {"measurement": "inhibition at 1 µM", "setting": "CSK", "value": 23.3, "unit": "%"}, {"measurement": "inhibition at 1 µM", "setting": "MAP2K3", "value": 4.9, "unit": "%"}, {"measurement": "inhibition at 1 µM", "setting": "MST1", "value": -26.3, "unit": "%"}, {"measurement": "inhibition at 1 µM", "setting": "HPK1", "value": 7.5, "unit": "%"}, {"measurement": "inhibition at 1 µM", "setting": "CDK7", "value": -6.8, "unit": "%"}, {"measurement": "inhibition at 1 µM", "setting": "CK1g2", "value": 10.8, "unit": "%"}, {"measurement": "inhibition at 1 µM", "setting": "LKB1", "value": 4.9, "unit": "%"}, {"measurement": "inhibition of kinase labeling", "setting": "[1]", "value": 0.7, "unit": "%"}]}]}
